The structures appear in SMILES notation. Where two headings read alike, the source gives them in different places.

The term inhibition denotes the change of the read-out against control, counted positive when it falls.

One assay deals with midbrain pp38. The experiment in a line: Midbrain pp38 protein expression in MPTP Parkinson's disease model mouse (western-blotting). To be noted: midbrain total protein, GAPDH internal reference, gavage 21 days after MPTP modeling. Format: in vivo. How it is done: (§1) Neurotoxins can be used to establish PD animal models. Currently, 1-methyl-4-phenyl-1,2,3,6-tetrahydropyridine (MPTP) is the sole synthetic toxin which is recognized to induce PD symptoms in human and non-human primates and in mice. Using MPTP subacute modeling method, C57BL/6J male mice were intraperitoneally injected with MPTP 30 mg/kg, once a day for 5 consecutive days. The experiment animals were divided into blank control group, MPTP model group, and compound treatment group. For the […] compound treatment group, the compound was administrated by gavage for 21 consecutive days after the completion of modeling; for the MPTP model group, the normal saline was administrated by gavage for 21 consecutive days after the completion of modeling; and for the blank control group, the normal saline was first intraperitoneally injected for 5 days, and then administrated by gavage for 21 days.
The p38 mitogen-activated protein kinase (p38 MAPK) is expressed in both neurons and glial cells, and is the intersection point of neuron-glial cell network information regulations. The activation of p38 signaling pathway is an important initiator of neuronal degeneration, which continuously induces the apoptosis of dopaminergic neurons in multiple ways. It has become a research hotspot for the treatment of PD. Studies have shown that the protective mechanism of CAPE against the death of primary cultured cerebellar granule neurons induced by glutamate lies in inhibiting the activation of p38 phosphorylation and in turn inhibiting the activation of the caspase 3 apoptotic pathway to prevent neuronal apoptosis. Therefore, the MPTP-induced PD mouse model can be used to investigate the inhibitory effect of the target compounds on the activation of p38 phosphorylation on the overall animal level.
Half of experiment mice in each group were taken to extract the total midbrain protein, and the change in the midbrain phosphorylated p38 protein expression was determined by western-blotting using GAPDH as the internal reference. The experiment included blank control group, MPTP model group, positive control group (caffeic acid phenethyl ester, CAPE), prototype control group (styryl sulfone compounds 3B, 3C, 3D, and 3G, whose structures are shown as above), and target compound group.

In the next assay the test system is primary glial cells. Put plainly: Inhibition of the NO release of primary glial cells induced by LPS. Particulars: Rattus norvegicus, Glial cell, read-out: NO inhibition (%). It counts as cell-based, rat. The source says:
Lipopolysaccharide (LPS) is a main component of the cell wall of Gram-negative bacteria. It is a potent inflammatory factor that can directly activate gliocytes, and the activated gliocytes secrete a large amount of inflammation mediators such as tumor necrosis factor, interleukin, and nitric oxide, thus causing inflammatory reactions and oxidative stress reactions and eventually leading to neuronal denaturation and death. In recent years, the targeted injection of LPS into rat substantia nigra or striatum to induce neuroinflammation can successfully establish PD models, which can simulate most of the clinical manifestations and pathological features of PD, and are used for the study on the neuroinflammation mechanism associated with PD. LPS-induced primary glial cell PD inflammation model is suitable for the preliminary anti-neuroinflammation screening for neuroprotective agents. LPS is used to directly activate primary glial cells to simulate the pathogenesis mechanism of neuroinflammation, and the inhibitory activity of the target compounds on the inflammatory response of primary glial cells can be investigated.
The materials were taken from the brain tissue of fetal rat, for primary glial cell culture. At 7 to 10 days of the culture, LPS was added for the activation of nitric oxide (NO) release in glial cells. When a target compound was added, the reduction value for NO content in the cell culture medium was measured, to evaluate the anti-neuroinflammation activity of the compound. The experiment included blank control group, LPS model group, positive control group (caffeic acid phenethyl ester, CAPE), prototype control group (styryl sulfone compounds 3B, 3C, 3D, and 3G, the structures of which compounds are shown as above), and target compound group.

A further assay deals with hippocampus GFAP. The experiment in a line: Number of hippocampus astrocytes with GFAP positive expression in MPTP Parkinson's disease model mouse (immunohistochemistry). It counts as in vivo. Particulars: hippocampus, MPTP Parkinson's disease model mouse, immunohistochemistry. On the procedure:
as §1
Neuron-glial cell network homeostasis disorder is an important factor for the selective and progressive death of substantia nigra dopaminergic neurons in PD. In the neurotoxic effect of MPTP, the excessive activations of microglial cells and astrocytes produce a variety of inflammatory cytokines and reactive oxygen species (ROS). These inflammatory factors and ROS amplify their respective toxicities and mediate malignant feedback loop, causing a cascade inflammation response and aggravating the pathological process of PD. CD11b and GFAP are the marker proteins for activations of microglial cells and astrocytes, respectively. Therefore, the effect of the target compounds on the activations of the microglial cells and astrocytes in the substantia nigra, hippocampus, and midbrain areas of MPTP-induced PD mice can be investigated, to explore the mechanism of the anti-PD effect of the target compounds by inhibiting the neuroinflammation.
Half of experiment mice in each group were taken to separate the midbrain after perfusion and fixation. The tissue was trimmed, and the hippocampus area was taken to prepare paraffin sections. The GFAP immunohistochemical staining was performed for the statistics of the change in the number of astrocytes with GFAP positive expression. The experiment included blank control group, MPTP model group, positive control group (caffeic acid phenethyl ester, CAPE), prototype control group (styryl sulfone compounds 3B, 3C, 3D, and 3G, whose structures are shown as above), and target compound group.

For a further assay, the system named is midbrain p-α-s. The experiment in a line: Midbrain p-α-s protein expression in MPTP Parkinson's disease model mouse (western-blotting). To be noted: midbrain total protein, GAPDH internal reference, gavage 21 consecutive days after MPTP modeling. It counts as in vivo. How it is done: as §1
Alpha-synuclein is an “unfolded protein” in its natural state. It exists in a monomeric form, and participates in the physiological functions such as the release of neurotransmitters, the establishment of synaptic junctions, and the regulation of synaptic plasticity. Under pathological conditions, more than 90% of alpha-synuclein is phosphorylated at serine of position 129 and converted into phosphorylated alpha-synuclein (p-α-s), thereby forming Lewy bodies. The formation of Lewy bodies is one of the main pathological manifestations and pathological mechanisms for Parkinson's disease, and plays an important role in the formation and development of PD. The detection of the p-α-s expression in the midbrain and substantia nigra of PD model mice can evaluate the neuroprotective activity of the compound.
Half of experiment mice in each group were taken to extract the total midbrain protein, and the change in the midbrain P-α-s protein expression was determined by western-blotting using GAPDH as the internal reference. The experiment included blank control group, MPTP model group, positive control group (caffeic acid phenethyl ester, CAPE), prototype control group (styryl sulfone compounds 3B, 3C, 3D, and 3G, whose structures are shown as above), and target compound group.

Take `CN(C)c1ccc(CC(=O)Oc2cc(/C=C/S(=O)(=O)C(Br)c3ccc(Cc4ccc(N(C)C)cc4)cc3)ccc2OC(=O)N2CCCC2C(F)(F)F)cc1` (stereo not drawn) [Compound M1-5]: the “Expression (pp38/GAPDH)” value with midbrain pp38 was 0.29 ± 0.06. For the same molecule, the inhibition at 5 µM in the assay with primary glial cells (5 μM) worked out at 21.2 ± 3.12%. For the same molecule, the inhibition at 10 µM in the assay on primary glial cells (10 μM) was 45.6 ± 4.28%. Further, the inhibition at 20 µM in the assay with primary glial cells (20 μM) is 66.7 ± 4.02%. The “Positive cell number (astrocytes with GFAP positive expression)” value (shortened to “Positive cell number”) with hippocampus GFAP came out at 67 ± 6. Also, the “Expression (p-α-s/GAPDH)” value with midbrain p-α-s stood at 0.24 ± 0.05.

Regarding `Cc1ccc(N2CCN(C(=O)Oc3ccc(/C=C/S(=O)(=O)CCCC(c4ccc(OC(=O)CN(C)C)cc4)N(C)C)cc3OC(=O)N(C)c3ccccc3)CC2)cc1` (stereo not drawn) [Compound P1-1, (E)-4-{2-[4-(dimethylamino)-4-(4-(N,N-dimethylglycyloxy)phenyl)butylsulfonyl]ethenyl}-2-(N-methyl-N-phenylcarbamoyloxy)phenyl-4-(p-methylphenyl)piperazine-1-carboxylate], the “Expression (pp38/GAPDH)” value in the assay on midbrain pp38 is 0.50 ± 0.09. For the same molecule, in the assay on primary glial cells, the inhibition at 2 µM was 25.9 ± 3.54%, the inhibition at 5 µM came to 40 ± 2.66% and the inhibition at 10 µM worked out at 78.4 ± 3.96%. Further, the “Positive cell number” value with hippocampus GFAP amounted to 72 ± 3. In addition, the “Expression (p-α-s/GAPDH)” value in the assay on midbrain p-α-s is recorded as 0.48 ± 0.12.

For the molecule `COc1ccc(CC(=O)Oc2ccc(C(N)CS(=O)(=O)/C=C/c3ccc(OC(C)(C)C)c(OC(=O)N(C)c4ccccc4)c3)cc2)cc1` (stereo not drawn) [Compound P1-3, (E)-4-{1-amino-2-[4-t-butoxy-3-(N-methyl-N-phenylcarbamoyloxy)styrylsulfonyl]ethyl}phenyl-2-(4-methoxyphenyl)acetate], in the assay with midbrain pp38, the “Expression (pp38/GAPDH)” value is recorded as 0.33 ± 0.07. Besides, in the assay with primary glial cells, the inhibition at 5 µM was found to be 25.8 ± 4.25%, the inhibition at 10 µM came out at 42 ± 5.34% and the inhibition at 20 µM worked out at 58.2 ± 3.66%. In addition, the “Positive cell number” value with hippocampus GFAP was 74 ± 3. In addition, the “Expression (p-α-s/GAPDH)” value in the assay on midbrain p-α-s is 0.31 ± 0.05.

Turning to `COc1ccc(CC(=O)Oc2ccc(/C(C)=C/S(=O)(=O)/C=C/c3ccc(OC(=O)N(C)C)c(O[Si](C)(C)CCl)c3)cc2)cc1` [Compound P1-7, 4-{(E)-1-[(E)-3-(chloromethyldimethylsiloxy)-4-(N,N-dimethylcarbamoyloxy)styrylsulfonyl]prop-1-en-2-yl}phenyl-2-(4-methoxyphenyl) acetate], in the assay with midbrain pp38, the “Expression (pp38/GAPDH)” value amounted to 0.40 ± 0.04. Also, in the assay on primary glial cells, the inhibition at 5 µM amounted to 21.3 ± 4.43%, the inhibition at 10 µM turned out to be 41.2 ± 1.95% and the inhibition at 20 µM was determined as 71 ± 3.67%. For the same molecule, the “Positive cell number” value in the assay on hippocampus GFAP turned out to be 49 ± 4. In the assay with midbrain p-α-s, the “Expression (p-α-s/GAPDH)” value amounted to 0.27 ± 0.08.

`CC[Si](CC)(Oc1ccc(C(Cl)S(=O)(=O)/C=C/c2ccc(OC(=O)N3CC(C)OC(C)C3)c(OC(=O)c3cccc(Cl)c3OC)c2)cc1)c1ccccc1` (stereo not drawn) [Compound R1-5, (E)-4-{2-[4-(diethylphenylsiloxy)phenylchloromesyl]ethenyl}-2-(3-chloro-2-methoxybenzoyloxy)phenyl-2,6-dimethylmorpholine-4-carboxylate]: the “Expression (pp38/GAPDH)” value with midbrain pp38 came out at 0.44 ± 0.07. In addition, in the assay on primary glial cells (5 μM), the inhibition at 5 µM came to 23.8 ± 4.32%. For the same molecule, the inhibition at 10 µM in the assay on primary glial cells (10 μM) turned out to be 48.5 ± 3.68%. The inhibition at 20 µM in the assay with primary glial cells (20 μM) stood at 73.6 ± 3.92%. For the same molecule, the “Positive cell number” value with hippocampus GFAP was found to be 80 ± 2. The “Expression (p-α-s/GAPDH)” value in the assay on midbrain p-α-s worked out at 0.46 ± 0.11.

Consider `Cc1ccc(S(=O)(=O)Oc2ccc(CS(=O)(=O)/C=C/c3ccc(OS(=O)(=O)c4ccc(C)cc4)c(OC(=O)N(C)S(=O)(=O)c4ccc(C)cc4)c3)cc2)cc1` [Compound S6-6, (E)-2-(N-methyl-N-p-tosylcarbamoyloxy)-4-{2-[(4-p-tosyloxyphenyl)mesyl]ethenyl}phenyl p-toluenesulfonate], for which the “Expression (pp38/GAPDH)” value in the assay on midbrain pp38 was determined as 0.27 ± 0.05. For the same molecule, in the assay with primary glial cells, the inhibition at 5 µM worked out at 30.2 ± 2.97%, the inhibition at 10 µM amounted to 59.2 ± 3.49% and the inhibition at 20 µM was found to be 85.1 ± 4.41%. Further, the “Positive cell number” value in the assay with hippocampus GFAP is listed as 58 ± 2. Moreover, the “Expression (p-α-s/GAPDH)” value in the assay with midbrain p-α-s came out at 0.28 ± 0.06.
